Assay results reported in patent publication US9242998B2, “Tetracyclic heterocycle compounds and methods of use thereof for the treatment of hepatitis C” (priority 2013, dated 2016).

What was measured:
HCV genotype 1a replicon = assay: HCV replicon assay, genotype 1a (cell ELISA for replicon-encoded NS3/4A); format: cell-based; details: Hepatitis C virus, 96 h, read-out: 1a IC50
Protocol: (§1) Measurement of inhibition by compounds was performed using the HCV replicon system. Several different replicons encoding different HCV genotypes or mutations were used. In addition, potency measurements were made using different formats of the replicon assay, including different ways of measurements and different plating formats. See Jan M. Vrolijk et al., A replicons-based bioassay for the measurement of interferons in patients with chronic hepatitis C, 110 J. V[…] 201 (2003); Steven S. Carroll et al., Inhibition of Hepatitis C Virus RNA Replication by 2′-Modified Nucleoside Analogs, 278(14) J. BIOLOGICAL CHEMISTRY 11979 (2003). However, the underlying principles are common to all of these determinations, and are outlined below.
(§2) Stable neomycin phosphotransferase encoding replicons-harboring cell lines were used, so all cell lines were maintained under G418 selection prior to the assay. Potency was determined using a cell ELISA assay with an antibody to the replicons encoded NS3/4a protease. See Caterina Trozzi et al., In Vitro Selection and Characterization of Hepatitis C Virus Serine Protease Variants Resistant to an Active-Site Peptide Inhibitor, 77(6) J. Virol. 3669 (2003). To initiate an assay, replicon cells were plated in the presence of a dilution series of test compound in the absence of G418. Typically, the assays were performed in a 96-well plate formate for manual operation, or a 384-well plate format for automated assay. Replicon cells and compound were incubated for 96 hours. At the end of the assay, cells were washed free of media and compound, and the cells were then lysed. RNA was quantified indirectly through detection of replicon-encoded NS3/4A protein levels, through an ELISA-based assay with an antibody specific for NS3/4A. IC50 determinations were calculated as a percentage of a DMSO control by fitting the data to a four-parameter fit function and the data obtained is provided in the table below.
(§3) Data for selected compounds of the present invention was obtained for genotypes 1a and 1b using this method and is provided in the table below: […]

HCV genotype 1b replicon = assay: HCV replicon assay, genotype 1b (cell ELISA for replicon-encoded NS3/4A); format: cell-based; details: Hepatitis C virus, 96 h, read-out: 1b IC50
Protocol: as §1, §2, §3

SMILES	IC50 (HCV genotype 1a replicon) [nM]	IC50 (HCV genotype 1b replicon) [nM]
CNC(=O)c1c(C=C(C)C)oc2cc(N(C)S(C)(=O)=O)c(-c3ccc4c(n3)-c3cc5c(F)cccc5n3CO4)cc12 [Compound 3]	3.6	5.8
CNC(=O)c1c(-c2ccc(C(F)F)cc2)oc2cc(N(C)S(C)(=O)=O)c(-c3ccc4c(n3)-c3cc5c(F)cccc5n3CO4)cc12 [Compound 28, 2-(4-(difluoromethyl)phenyl)-5-(11-fluoro-6H-pyrido[2′,3′:5,6][1,3]oxazino[3,4-a]indol-2-yl)-N-methyl-6-(N-methylmethylsulfonamido)benzofuran-3-carboxamide]	9	6.9
CNC(=O)c1c(-c2cnn(C(C)C)c2)oc2cc(N(C)S(C)(=O)=O)c(-c3ccc4c(n3)-c3cc5c(F)cccc5n3CO4)cc12 [Compound 34]	15	14
CNC(=O)c1c(C2=CCCC2)oc2cc(N(C)S(C)(=O)=O)c(-c3ccc4c(n3)-c3cc5c(F)cccc5n3CO4)cc12 [Compound 45]	6.1	6.4
CNC(=O)c1c(-c2cnn(C)c2)oc2cc(N(C)S(C)(=O)=O)c(-c3ccc4c(n3)-c3cc5c(F)cccc5n3CO4)cc12 [Compound 5]	4.4	7.5
CNC(=O)c1c(-c2ccc(OC(C)C)nc2)oc2cc(N(C)S(C)(=O)=O)c(-c3ccc4c(n3)-c3cc5c(F)cccc5n3CO4)cc12 [Compound 10]	15	13
CNC(=O)c1c(C2=CCCC2)oc2cc(N(C)S(C)(=O)=O)c(-c3ncc4c(n3)-c3cc5ccccc5n3CO4)cc12 [Compound 46]	15	13
CNC(=O)c1c(-c2ccc(C)nc2)oc2cc(N(C)S(C)(=O)=O)c(-c3ccc4c(n3)-c3cc5c(F)cccc5n3CO4)cc12 [Compound 7]	8.5	13
CNC(=O)c1c(-c2ccc(OC(F)(F)F)cc2)oc2cc(N(C)S(C)(=O)=O)c(-c3ccc4c(n3)-c3cc5c(F)cccc5n3CO4)cc12 [Compound 33]	50	2.5
CNC(=O)c1c(-n2cc(C)cn2)oc2cc(N(C)S(C)(=O)=O)c(-c3ccc4c(n3)-c3cc5c(F)cccc5n3CO4)cc12 [Compound 39]	48	67
CNC(=O)c1c(C2CC2)oc2cc(N(C)S(C)(=O)=O)c(-c3ccc4c(n3)-c3cc5c(F)cccc5n3C(CO)O4)cc12 (single isomer, unassigned) [Compound 51, (R or S)-2-cyclopropyl-5-(11-fluoro-6-(hydroxymethyl)-6H-pyrido[2′,3′:5,6][1,3]oxazino[3,4-a]indol-2-yl)-N-methyl-6-(N-methylmethylsulfonamido)benzofuran-3-carboxamide]	8.3	15
CNC(=O)c1c(-c2cccnc2OC)oc2cc(N(C)S(C)(=O)=O)c(-c3ccc4c(n3)-c3cc5c(F)cccc5n3CO4)cc12 [Compound 15]	23	34
CNC(=O)c1c(-c2ccc(C(F)(F)F)cn2)oc2cc(N(C)S(C)(=O)=O)c(-c3ccc4c(n3)-c3cc5c(F)cccc5n3CO4)cc12 [Compound 31]	5.9	3.9
CNC(=O)c1c(-c2cccnc2O)oc2cc(N(C)S(C)(=O)=O)c(-c3ccc4c(n3)-c3cc5c(F)cccc5n3CO4)cc12 [Compound 17, 5-(11-fluoro-6H-pyrido[2′,3′:5,6][1,3]oxazino[3,4-a]indol-2-yl)-2-(2-hydroxypyridin-3-yl)-N-methyl-6-(N-methylmethylsulfonamido)benzofuran-3-carboxamide]	324	393
CNC(=O)c1c(-n2cccn2)oc2cc(N(C)S(C)(=O)=O)c(-c3ccc4c(n3)-c3cc5c(F)cccc5n3CO4)cc12 [Compound 40]	16	22
CNC(=O)c1c(N2CCOC2=O)oc2cc(N(C)S(C)(=O)=O)c(-c3ccc4c(n3)-c3cc5c(F)cccc5n3CO4)cc12 [Compound 43]	21	50
CNC(=O)c1c(-n2ccc(C)cc2=O)oc2cc(N(C)S(C)(=O)=O)c(-c3ccc4c(n3)-c3cc5c(F)cccc5n3CO4)cc12 [Compound 38]	3.5	2.7
CNC(=O)c1c(-n2ccnc2)oc2cc(N(C)S(C)(=O)=O)c(-c3ccc4c(n3)-c3cc5c(F)cccc5n3CO4)cc12 [Compound 36, 5-(11-fluoro-6H-pyrido[2′,3′:5,6][1,3]oxazino[3,4-a]indol-2-yl)-2-(1H-imidazol-1-yl)-N-methyl-6-(N-methylmethylsulfonamido)benzofuran-3-carboxamide]	14	20
CNC(=O)c1c(-c2ccc(F)cn2)oc2cc(N(C)S(C)(=O)=O)c(-c3ccc4c(n3)-c3cc5c(F)cccc5n3CO4)cc12 [Compound 30]	11	25
CNC(=O)c1c(C(=O)N2CCOCC2)oc2cc(N(C)S(C)(=O)=O)c(-c3ccc4c(n3)-c3cc5c(F)cccc5n3CO4)cc12 [Compound 57]	232	135
CNC(=O)c1c(C2=CCCC2)oc2cc(N(C)S(C)(=O)=O)c(-c3ncc4c(n3)-c3cc5c(F)cccc5n3CO4)cc12 [Compound 47]	5.9	8.8
CNC(=O)c1c(C2CC2)oc2cc(N(C)S(C)(=O)=O)c(-c3cc4c(cn3)OC(CO)n3c-4cc4c(F)cccc43)cc12 (stereo not shown) [Compound 52]	52	23
CNC(=O)c1c(C2CC2)oc2cc(N(C)S(C)(=O)=O)c(-c3ccc4c(n3)-c3cc5c(F)cccc5n3CO4)cc12 [Compound 2]	13	12
CNC(=O)c1c(-c2ccc(OC)nc2)oc2cc(N(C)S(C)(=O)=O)c(-c3ccc4c(n3)-c3nc5cccc(F)c5n3CO4)cc12 [Compound 19, 5-(8-fluoro-6H-benzo[4,5]imidazo[1,2-c]pyrido[2,3-e][1,3]oxazin-2-yl)-2-(6-methoxypyridin-3-yl)-N-methyl-6-(N-methylmethylsulfonamido)benzofuran-3-carboxamide]	35	13
CNC(=O)c1c(-c2ccc(F)nc2)oc2cc(N(C)S(C)(=O)=O)c(-c3ccc4c(n3)-c3cc5c(F)cccc5n3CO4)cc12 [Compound 4]	3	6.1
CNC(=O)c1c(C2CC2)oc2cc(N(C)S(C)(=O)=O)c(-c3ncc4c(n3)-c3cc5c(F)cccc5n3CO4)cc12 [Compound 53]	33	30
CNC(=O)c1c(-c2ccc(C(F)F)nc2)oc2cc(N(C)S(C)(=O)=O)c(-c3ccc4c(n3)-c3cc5c(F)cccc5n3C(CO)O4)cc12 (stereo not shown) [Compound 22]	3.5	2.5
CNC(=O)c1c(C2=CCCC2)oc2cc(N(C)S(C)(=O)=O)c(-c3ccc4c(n3)-c3cc5ccccc5n3CO4)cc12 [Compound 44, 2-(cyclopent-1-en-1-yl)-N-methyl-6-(N-methylmethylsulfonamido)-5-(6H-pyrido[2′,3′:5,6][1,3]oxazino[3,4-a]indol-2-yl)benzofuran-3-carboxamide]	6.2	8.3
CNC(=O)c1c(-c2ccc(C#N)cc2)oc2cc(N(C)S(C)(=O)=O)c(-c3ccc4c(n3)-c3cc5c(F)cccc5n3CO4)cc12 [Compound 29, 2-(4-cyanophenyl)-5-(11-fluoro-6H-pyrido[2′,3′:5,6][1,3]oxazino[3,4-a]indol-2-yl)-N-methyl-6-(N-methylmethylsulfonamido)benzofuran-3-carboxamide]	13	25
